The test system of one assay is K562. Briefly: Cytotoxicity against human K562 cells. To be noted: read-out: LC50 (the source's name). The class given is functional.
Another assay relates to A549. Put plainly: Cytotoxicity against human A549 cells. The class given is functional. The note with it: read-out: LC50 (the source's name).
Assay [1] concerns the target Sodium/potassium-transporting ATPase (Homo sapiens) (UniProt P05023+P14415+P05026+P50993+P54709+P13637+Q13733+P54710).
Description: Inhibition of Na+/K+ ATPase (unknown origin)

Numbered stars: 1 amine (or outer) side, 2 acyl side, 3 side chain; on linkers, the order of the positions; unused ones are H or OH. Bridge positions count the residues as written; N and C are the ends. Square brackets hold non-standard residues; d marks the D form. Peptide text beside a SMILES is read from it. * marks the point of attachment. X1 = O=C([C@@H]1CCCN1C[C@@H]1CCCN1[*:1])[*:2]; pGlu = O=C1CC[C@@H](C(=O)O)N1; X2 = Oc1ccc(/C=C/N*)cc1

Our source for the CC50 and LC50 values is ChEMBL document CHEMBL2406969, “Gombamide A, a cyclic thiopeptide from the sponge Clathria gombawuiensis” (2013).

By LC50 is commonly meant the concentration lethal to half of the exposed cells or organisms.

In the case of `COc1cccc2c1C(=O)c1c(O)c3c(c(O)c1C2=O)C[C@@](O)(C(=O)CO)C[C@@H]3O[C@H]1C[C@H](N)[C@H](O)[C@H](C)O1` [DOXORUBICIN], the figures for the CC50 in the assay on K562 and with A549 were 0.7 µM and 0.5 µM, respectively.
In the case of `O=C1CC[C@@H](C(=O)N[C@H]2CSSC[C@@H](C(=O)N/C=C/c3ccc(O)cc3)NC(=O)[C@H](Cc3ccccc3)NC(=O)[C@@H]3CCCN3C[C@@H]3CCCN3C2=O)N1` ([pGlu]C[X1]FC-X2; disulfide 2-5), the CC50 with K562 amounted to 6.9 µM; in the assay on A549, 7.1 µM. In addition, in assay [1], the LC50 came to 17.8 µM.
